Results from patent US8192962B2, “Processes for detecting toxic substances” (Daikin Industries, Ltd., priority 2001, dated 2012).

Test system: Metabolism protein genes
Assay: DNA chip mRNA expression in yeast, metabolism protein genes (Table 7)
Assay type: cell-based, Saccharomyces cerevisiae S288C
How it was run: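 Whole-genome yeast DNA chip hybridization (65° C., >12 h) of Cy-labeled cDNA from S288C cells exposed 2 h at 25° C. to a sub-lethal toxicant dose in YPD; value is intensity relative to chemical-free control.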

CCCCCCCCCCCCOS(=O)(=O)[O-].[Na+] [(18), sodium lauryl sulfate]
The level of expressed mRNA in the presence of chemical substance/The level of expressed mRNA in the absence of chemical substance (yeast gene YKL035W): 1.9 | level of expressed mRNA in the presence/in the absence of chemical substance (yeast gene YKL060C): 1.7 | The level of expressed mRNA in the presence of chemical substance/The level of expressed mRNA in the absence of chemical substance (yeast gene YKL091C): 2.0 | The level of expressed mRNA in the presence of chemical substance/The level of expressed mRNA in the absence of chemical substance (yeast gene YKL104C): 1.1 | level of expressed mRNA in the presence/in the absence of chemical substance (yeast gene YKL148C): 1.0 | The level of expressed mRNA in the presence of chemical substance/The level of expressed mRNA in the absence of chemical substance (yeast gene YKL152C): 1.7 | level of expressed mRNA in the presence/in the absence of chemical substance (yeast gene YKL157W): 1.5 | The level of expressed mRNA in the presence of chemical substance/The level of expressed mRNA in the absence of chemical substance (yeast gene YKL213C): 1.6 | The level of expressed mRNA in the presence of chemical substance/The level of expressed mRNA in the absence of chemical substance (yeast gene YKL215C): 0.9 | The level of expressed mRNA in the presence of chemical substance/The level of expressed mRNA in the absence of chemical substance (yeast gene YKR009C): 2.5 | level of expressed mRNA in the presence/in the absence of chemical substance (yeast gene YKR034W): 1.0 | The level of expressed mRNA in the presence of chemical substance/The level of expressed mRNA in the absence of chemical substance (yeast gene YKR039W): 1.1 | The level of expressed mRNA in the presence of chemical substance/The level of expressed mRNA in the absence of chemical substance (yeast gene YLL058W): 1.3 | level of expressed mRNA in the presence/in the absence of chemical substance (yeast gene YLR006C): 1.0 | level of expressed mRNA in the presence/in the absence of chemical substance (yeast gene YLR044C): 0.9 | level of expressed mRNA in the presence/in the absence of chemical substance (yeast gene YLR056W): 1.1 | level of expressed mRNA in the presence/in the absence of chemical substance (yeast gene YLR058C): 0.8 | level of expressed mRNA in the presence/in the absence of chemical substance (yeast gene YLR081W): 0.9 | level of expressed mRNA in the presence/in the absence of chemical substance (yeast gene YLR089C): 1.3 | The level of expressed mRNA in the presence of chemical substance/The level of expressed mRNA in the absence of chemical substance (yeast gene YLR180W): 0.7 | The level of expressed mRNA in the presence of chemical substance/The level of expressed mRNA in the absence of chemical substance (yeast gene YLR273C): 1.0 | level of expressed mRNA in the presence/in the absence of chemical substance (yeast gene YLR284C): 8.1 | The level of expressed mRNA in the presence of chemical substance/The level of expressed mRNA in the absence of chemical substance (yeast gene YLR299W): 1.4 | The level of expressed mRNA in the presence of chemical substance/The level of expressed mRNA in the absence of chemical substance (yeast gene YLR300W): 0.5 | level of expressed mRNA in the presence/in the absence of chemical substance (yeast gene YLR304C): 0.7 | The level of expressed mRNA in the presence of chemical substance/The level of expressed mRNA in the absence of chemical substance (yeast gene YLR307W): 1.0 | The level of expressed mRNA in the presence of chemical substance/The level of expressed mRNA in the absence of chemical substance (yeast gene YLR348C): 1.0 | level of expressed mRNA in the presence/in the absence of chemical substance (yeast gene YLR354C): 1.5 | level of expressed mRNA in the presence/in the absence of chemical substance (yeast gene YLR372W): 0.6 | level of expressed mRNA in the presence/in the absence of chemical substance (yeast gene YML022W): 0.7 | The level of expressed mRNA in the presence of chemical substance/The level of expressed mRNA in the absence of chemical substance (yeast gene YML054C): 1.6 | The level of expressed mRNA in the presence of chemical substance/The level of expressed mRNA in the absence of chemical substance (yeast gene YML070W): 1.3 | The level of expressed mRNA in the presence of chemical substance/The level of expressed mRNA in the absence of chemical substance (yeast gene YML100W): 1.5 | The level of expressed mRNA in the presence of chemical substance/The level of expressed mRNA in the absence of chemical substance (yeast gene YMR008C): 1.9 | level of expressed mRNA in the presence/in the absence of chemical substance (yeast gene YMR011W): 1.6 | level of expressed mRNA in the presence/in the absence of chemical substance (yeast gene YMR015C): 1.0 | The level of expressed mRNA in the presence of chemical substance/The level of expressed mRNA in the absence of chemical substance (yeast gene YMR020W): 2.2 | The level of expressed mRNA in the presence of chemical substance/The level of expressed mRNA in the absence of chemical substance (yeast gene YMR081C): 3.0 | level of expressed mRNA in the presence/in the absence of chemical substance (yeast gene YMR083W): 1.1 | The level of expressed mRNA in the presence of chemical substance/The level of expressed mRNA in the absence of chemical substance (yeast gene YMR105C): 2.6 | The level of expressed mRNA in the presence of chemical substance/The level of expressed mRNA in the absence of chemical substance (yeast gene YMR189W): 0.8 | level of expressed mRNA in the presence/in the absence of chemical substance (yeast gene YMR205C): 0.5 | level of expressed mRNA in the presence/in the absence of chemical substance (yeast gene YMR261C): 1.1 | The level of expressed mRNA in the presence of chemical substance/The level of expressed mRNA in the absence of chemical substance (yeast gene YMR271C): 2.2 | The level of expressed mRNA in the presence of chemical substance/The level of expressed mRNA in the absence of chemical substance (yeast gene YMR296C): 0.7 | level of expressed mRNA in the presence/in the absence of chemical substance (yeast gene YMR323W): 0.6 | The level of expressed mRNA in the presence of chemical substance/The level of expressed mRNA in the absence of chemical substance (yeast gene YNL012W): 1.5 | level of expressed mRNA in the presence/in the absence of chemical substance (yeast gene YNL025C): 1.3 | The level of expressed mRNA in the presence of chemical substance/The level of expressed mRNA in the absence of chemical substance (yeast gene YNL045W): 1.1 | The level of expressed mRNA in the presence of chemical substance/The level of expressed mRNA in the absence of chemical substance (yeast gene YNL104C): 0.9 | The level of expressed mRNA in the presence of chemical substance/The level of expressed mRNA in the absence of chemical substance (yeast gene YNL106C): 0.9 | The level of expressed mRNA in the presence of chemical substance/The level of expressed mRNA in the absence of chemical substance (yeast gene YNL169C): 1.3 | level of expressed mRNA in the presence/in the absence of chemical substance (yeast gene YNL192W): 2.8 | The level of expressed mRNA in the presence of chemical substance/The level of expressed mRNA in the absence of chemical substance (yeast gene YNL231C): 4.0 | The level of expressed mRNA in the presence of chemical substance/The level of expressed mRNA in the absence of chemical substance (yeast gene YNL322C): 1.0 | The level of expressed mRNA in the presence of chemical substance/The level of expressed mRNA in the absence of chemical substance (yeast gene YNL331C): 1.3 | The level of expressed mRNA in the presence of chemical substance/The level of expressed mRNA in the absence of chemical substance (yeast gene YNL332W): 1.0 | The level of expressed mRNA in the presence of chemical substance/The level of expressed mRNA in the absence of chemical substance (yeast gene YNR019W): 2.0 | The level of expressed mRNA in the presence of chemical substance/The level of expressed mRNA in the absence of chemical substance (yeast gene YNR033W): 1.1 | The level of expressed mRNA in the presence of chemical substance/The level of expressed mRNA in the absence of chemical substance (yeast gene YNR059W): 2.2 | The level of expressed mRNA in the presence of chemical substance/The level of expressed mRNA in the absence of chemical substance (yeast gene YOL058W): 0.8 | level of expressed mRNA in the presence/in the absence of chemical substance (yeast gene YOL086C): 1.3 | level of expressed mRNA in the presence/in the absence of chemical substance (yeast gene YOL108C): 2.7 | level of expressed mRNA in the presence/in the absence of chemical substance (yeast gene YOL116W): 1.4 | The level of expressed mRNA in the presence of chemical substance/The level of expressed mRNA in the absence of chemical substance (yeast gene YOL126C): 2.4 | The level of expressed mRNA in the presence of chemical substance/The level of expressed mRNA in the absence of chemical substance (yeast gene YOL153C): 1.7 | level of expressed mRNA in the presence/in the absence of chemical substance (yeast gene YOL156W): 0.9 | The level of expressed mRNA in the presence of chemical substance/The level of expressed mRNA in the absence of chemical substance (yeast gene YOL165C): 1.0 | level of expressed mRNA in the presence/in the absence of chemical substance (yeast gene YOR002W): 1.1 | level of expressed mRNA in the presence/in the absence of chemical substance (yeast gene YOR085W): 0.9 | The level of expressed mRNA in the presence of chemical substance/The level of expressed mRNA in the absence of chemical substance (yeast gene YOR099W): 2.3 | level of expressed mRNA in the presence/in the absence of chemical substance (yeast gene YOR103C): 1.5 | level of expressed mRNA in the presence/in the absence of chemical substance (yeast gene YOR108W): 1.1 | level of expressed mRNA in the presence/in the absence of chemical substance (yeast gene YOR128C): 1.2 | The level of expressed mRNA in the presence of chemical substance/The level of expressed mRNA in the absence of chemical substance (yeast gene YOR130C): 1.1 | level of expressed mRNA in the presence/in the absence of chemical substance (yeast gene YOR142W): 1.0 | The level of expressed mRNA in the presence of chemical substance/The level of expressed mRNA in the absence of chemical substance (yeast gene YOR153W): 3.1 | level of expressed mRNA in the presence/in the absence of chemical substance (yeast gene YOR176W): 2.1 | level of expressed mRNA in the presence/in the absence of chemical substance (yeast gene YOR178C): 1.5 | level of expressed mRNA in the presence/in the absence of chemical substance (yeast gene YOR251C): 1.3 | The level of expressed mRNA in the presence of chemical substance/The level of expressed mRNA in the absence of chemical substance (yeast gene YOR336W): 1.0 | The level of expressed mRNA in the presence of chemical substance/The level of expressed mRNA in the absence of chemical substance (yeast gene YOR347C): 1.3 | level of expressed mRNA in the presence/in the absence of chemical substance (yeast gene YOR348C): 0.9 | The level of expressed mRNA in the presence of chemical substance/The level of expressed mRNA in the absence of chemical substance (yeast gene YPL017C): 0.8 | level of expressed mRNA in the presence/in the absence of chemical substance (yeast gene YPL028W): 1.8 | level of expressed mRNA in the presence/in the absence of chemical substance (yeast gene YPL057C): 2.0 | level of expressed mRNA in the presence/in the absence of chemical substance (yeast gene YPL135W): 1.7 | The level of expressed mRNA in the presence of chemical substance/The level of expressed mRNA in the absence of chemical substance (yeast gene YPL147W): 3.6 | level of expressed mRNA in the presence/in the absence of chemical substance (yeast gene YPL148C): 1.1 | The level of expressed mRNA in the presence of chemical substance/The level of expressed mRNA in the absence of chemical substance (yeast gene YPR026W): 1.3 | level of expressed mRNA in the presence/in the absence of chemical substance (yeast gene YPR113W): 1.9 | level of expressed mRNA in the presence/in the absence of chemical substance (yeast gene YPR165W): 2.7 | The level of expressed mRNA in the presence of chemical substance/The level of expressed mRNA in the absence of chemical substance (yeast gene YPR167C): 1.4 | level of expressed mRNA in the presence/in the absence of chemical substance (yeast gene YPR183W): 1.0
